In paper PMC6839174, “Targeting the Formyl Peptide Receptor type 1 to prevent the adhesion of ovarian cancer cells onto mesothelium and subsequent invasion” (Journal of Experimental & Clinical Cancer Research : CR, 2019):
Non-standard residues stand in square brackets, D forms with d. Aib = CC(C)(N)C(=O)O

Legend:
primary EOC cells [1] = test: GFP-EOC (primary) cell adhesion onto mesothelium (HPMC monolayer); type: cell-based, human; conditions: three independent experiments in triplicate
Description: (§1) HPMCs (1 × 10^5 cells/well) suspended in growth medium, were seeded in 24-well plates and allowed to adhere for about 20 h until they form a confluent monolayer, prior to seeding GFP-tagged EOC cells suspended in growth medium plus diluents or 10 nM RI-3. At the indicated times, plates were accurately washed with PBS and cell-associated fluorescence was assessed by a fluorescence plate reader a fluorescence plate reader (Victor 3, Perkin Elmer), using 485 nm excitation and 535 nm emission filters. The experiments were performed three times in triplicate.

SKOV-3 cells = test: HPMC invasion by SKOV-3 cells monitored in real time; type: cell-based, Human; conditions: 10 nM RI-3; xCELLigence cell index, slopes 20–24 h; quadruplicate representative of 3 replicates
Description: (§2) HPMCs (5 × 10^3 cells/well) suspended in growth medium, were seeded in E-16-well plates and allow to adhere for 18–20 h until they form a confluent monolayer, prior to seeding EOC cells (2 × 10^4 cells/well) in growth medium plus/minus 10 nM RI-3. When HPMCs are challenged with invading cells, there is a drop in electrical resistance within 2–4 h which is monitored in real-time as the Cell Index changes due to the rupture of mesothelium. The experiments were performed three times in quadruplicate.

A2780 cells = test: HPMC invasion by A2780 cells monitored in real time; type: cell-based, Human; conditions: 10 nM RI-3; xCELLigence; quadruplicate representative of 2 replicates
Description: as §2
Supplementary file 13046_2019_1465_MOESM1_ESM.zip: Additional file 1: Figure S1. Adhesion and mesothelial invasion properties of uPAR and FPR1 lacking EOC cells. a. […] analysis of human ovarian carcinoma A2780 cells with (CD87)-APC-conjugated anti-uPAR or PE-conjugated FPR1 antibodies. b. Cell adhesion of A2780 cells on 1% BSA (CTRL), Vn-, Fn-Lm or Coll-coated plates, in the presence or the absence of 10 nM RI-3. The number of adherent cells was expressed as a percentage of CTRL. Data are the means ± SD of three independent experiment. c. Mesothelium invasion by A2780 cells. […] Then, A2780 cells suspended in growth medium plus/minus 10 nM RI-3 were seeded onto the mesothelial cell monolayer and invasion of mesothelium by A2780 cells was monitored in real-time as changes in Cell Index due to breaking of the monolayer integrity. […]

primary EOC cells [2] = test: HPMC invasion by primary EOC cells monitored in real time; type: cell-based, human; conditions: 10 nM RI-3; xCELLigence, slopes 18–24 h; quadruplicate representative of 3 replicates
Description: as §2

EOC cells = test: EOC cell adhesion to and crossing of mesothelial cell monolayers (summary statement); type: cell-based, human; conditions: EOC cells exposed to RI-3 or desensitized with an excess of SRSRY
Description: as §1, §2

[3] = cited from earlier work
Excerpt: (§3) Human FPR1, originally identified in neutrophils, monocytes and macrophages, has been shown in recent years, to be expressed also in many non-myelocytic cells. Aberrant expression of FPR1 was detected in tumors of different origin and reported as a negative prognostic factor [29–31]. While the role of uPAR in favoring intra-abdominal dissemination of ovarian cancer cells is largely documented, no data regarding expression and possible role of FPR1 on the surface of ovarian cancer cells are currently available. In the past years, we generated synthetic peptides containing the s ...

FPR1 [4] = conditions: ref [36], cited from earlier work
Excerpt: as §3

[5] = system: p38 MAPK and PI3K/AKT signaling cascades; conditions: ref [36]; cited from earlier work
Excerpt: as §3

[6] = system: sarcoma and melanoma cells; conditions: dose dependent, ref [36], [37]; cited from earlier work
Excerpt: as §3

[7] = parameters: method as in PMID 28465589; conditions: mice, ref [36], cited from earlier work
FPR1 [8] = conditions: FPR1 overexpressing rat basophilic leukaemia RBL-2H3/ETFR cells; stated also as conclusion for primary EOC cells; ref [38]; cited from earlier work
Excerpt: In order to obtain primary cultures of EOC cells, representative fragments of tissue samples were fragmented and cells recovered, as described in the Methods. By enzymatic digestion of a HGSC tissue sample (patient #5), a primary cell culture expressing high levels of both uPAR and FPR1 on cell surface as shown by IHC, was obtained (Figs. 4 and 5a). Subsequent sub-cloning of isolated cell clusters (Fig. 5b) followed by five passages allowed us to obtain an adherent, homogeneous, CD326 positive cell population. These EOC cells express a considerable amount of both uPAR and FPR1 as shown by West ...

Ac-[dY][dR][Aib][dR]-NH2 [RI-3, retro-inverso peptide, uPAR/FPR1 antagonist]
reduction of EOC cell adhesion onto mesothelium (primary EOC cells [1]; 10 nM RI-3, after 5 min): 72%
reduction of EOC cell adhesion onto mesothelium (primary EOC cells [1]; 10 nM RI-3, after 10 min): 51%
reduction of EOC cell adhesion onto mesothelium (primary EOC cells [1]; 10 nM RI-3, after 20 min): 47%
reduction of EOC cell adhesion onto mesothelium (primary EOC cells [1]; 10 nM RI-3, after 40 min): 46%
capability of SKOV-3 cells to disrupt mesothelial cell monolayer (SKOV-3 cells): abrogated the capability of SKOV-3 cells to disrupt mesothelial cell monolayer
A2780 cell crossing of mesothelium (A2780 cells): ineffective
reduction of capability of EOC cells to cross the mesothelial cell monolayer (primary EOC cells [2]): about 80%
ability to cross mesothelial cell monolayers (abstract) (EOC cells): losing the ability to cross them
stability in human serum [3]: stable in human serum
competition for binding to FPR1 (FPR1 [4]; competes with fMLF and SRSRY): competes with fMLF and SRSRY for binding to FPR1
SRSRY-induced FPR1 internalization (FPR1 [4]): preventing SRSRY-induced FPR1 internalization
p38 MAPK and PI3K/AKT signaling cascades [5]: preventing SRSRY-induced FPR1 internalization as well as p38 MAPK and PI3K/AKT signaling cascades
concentration range for overall 50% reduction of cell invasion [6]: nanomolar range
concentration range for overall 50% reduction of cell migration [6]: picomolar
body weight ([7]; versus vehicle-treated animals): no change of body weight
tolerability in vivo [7]: well tolerated in vivo
visible side-effects [7]: no visible side-effects
FPR1 binding and blockade of internalization and function (FPR1 [8]): binds to FPR1 blocking its internalization and function
